Molecular target: T1, CDK2/Cyclin E (Homo sapiens, UniProt P24941)
T1 construct: The open reading frames of CDK2 and Cyclin E were isolated; made in house; host or cells: Sf21 (Spodoptera frugiperda) insect cells, baculovirus co-infection; the GST-Rb substrate was made in E. coli BL21 (DE3) pLysS
Test: in vitro kinase assay (Scintillation Proximity Assay), CDK2/Cyclin E, GST-Rb substrate
Type: biochemical
Settings: in-vitro SPA kinase assay, read-out: CDK2 inhibitory activity IC50
Experimental: The compounds were tested in an in vitro kinase assay in 96 well format using Scintillation Proximity Assay (SPA—obtained from Amersham) for measuring incorporation of [γ-33-P]-Adenosine Triphosphate into a test substrate (GST-Retinoblastoma protein; GST-Rb). In each well was placed the compound to be tested (diluted in DMSO and water to correct concentrations) and in control wells either roscovitine as an inhibitor control or DMSO as a positive control. […]
The plates were sealed with Topseal-S plate sealers, left for two hours then spun at 2500 rpm, 1124×g., for 5 minutes. The plates were read on a Topcount for 30 seconds per well. […]
E. coli paste was resuspended in 10 ml/g of NETN buffer (50 mM Tris pH 7.5, 120 mM NaCl, 1 mM EDTA, 0.5% v/v NP-40, 1 mM PMSF, 1 ug/ml leupeptin, 1 ug/ml aprotinin and 1 ug/ml pepstatin) and sonicated for 2×45 seconds per 100 ml homogenate. […] The final product was analysed by Sodium Dodeca Sulfate (SDS) PAGE (Polyacrylamide gel) using 8-16% Tris-Glycine gels (Novex, San Diego, USA).
The open reading frames of CDK2 and Cyclin E were isolated by reverse transcriptase-PCR using HeLa cell and activated T cell mRNA as a template and cloned into the insect expression vector pVL1393 (obtained from Invitrogen 1995 catalogue number: V1392-20). […]

- IC50: 0.049 µM
SMILES: Cc1ncc(-c2ccnc(Nc3ccc(N4CCOCC4)nc3)n2)n1C(C)C [Example 22, 4-(1-Isopropyl-2-methyl-1H-imidazol-5-yl)-N-(6-morpholin-4-ylpyridin-3-yl)pyrimidin-2-amine]

Reference: patent publication US20090233928A1, “IMIDAZOLO-5-YL-2-ANILO-PYRIMIDINES AS AGENTS FOR THE INHIBITION OF CELL PROLIFERATION” (priority 2005, published 2009)
